According to publication PMC10298926, “Biophysical Characterization of the Binding Mechanism between the MATH Domain of SPOP and Its Physiological Partners” (International Journal of Molecular Sciences, 2023):
Where a SMILES comes first, the peptide text is derived from it. Where no end group is shown, it is not given here. The star is where a group is joined. Dansyl = CN(C)c1cccc2c(S(=O)(=O)*)cccc12

Experiments:
SPOP MATH WT [1] = molecular target: T1, SPOP MATH WT (Homo sapiens, UniProt O43791); assay: Stopped-flow pseudo-first-order binding kinetics; conditions: 298 K; for kon: stopped-flow, 2 µM MATH domain, dansylated peptide 2 to 10 µM (Puc, MacroH2A) or 2 to 40 µM (PTEN), 50 mM sodium-HEPES, pH 7.2 (for ionic strength series), five traces averaged, slope of kobs vs peptide
Experimental: (§1) To infer the mechanism of recognition of SPOP MATH, we resorted to performing time-resolved kinetic experiments. SPOP MATH was rapidly mixed with increasing concentrations of dansylated peptides (from 2 to 10 µM for Puc and MacroH2A, and from 2 to 40 µM for PTEN) in a stopped-flow apparatus at 298 K. The binding traces obtained by monitoring the time-resolved fluorescence were satisfactorily fitted to a single exponential equation, allowing calculating the observed rate constants kobs at different peptide concentrations. We then plotted the kobs values over the concentration of dansylated peptide and fitted the data to a simple linear function equation: kobs=kon Peptide+koff where kobs is the observed rate constant; kon and koff are the microscopic association and dissociation rate constants, respectively (Figure 2). The slope and y-axis intercept represent the microscopic association and dissociation rate constant, respectively. To minimize the error associated with the indirect measurement of the dissociation rate constant, we carried out displacement experiments to determine the koff values. The displacement experiments were designed by mixing the preformed complex SPOP MATH-dansylated peptides with a high excess of nondansylated peptide, as described in the Section 4. […] On the basis of these observations, it is possible to conclude that, in the case of binding to MacroH2A and PTEN, there is the presence of an additional step, which escapes detection by stopped-flow experiments and is likely to be negligible in the case of Puc. […] We note that such a case closely resembles the presence of a so-called burst phase, which is frequently observed in protein-folding studies.
Binding kinetic experiments were performed on an Applied Photophysics DX-17MV stopped-flow apparatus (Applied Photophysics, Leatherhead, UK). Pseudo-first-order binding experiments were performed by mixing a constant concentration (2 μM) of MATH domain with increasing dansylated peptides concentrations, from 2 to 10 μM of Puc and MacroH2A, and 2 to 40 µM of PTEN. The samples were excited at 280 nm, and the emission fluorescence was recorded by using a bandpass 320 nm cutoff filter. The experiments were performed at 298 K. For ionic strength dependence with Puc and MacroH2A, the buffers used were 50 mM sodium-HEPES, pH 7.2, supplemented with 50 mM, 100 mM, 200 mM, or 500 mM of sodium chloride (NaCl). For the PTEN binding salt dependence experiments, lower concentrations of salt were added for the previous buffer list mentioned (10 mM, 25 mM, and 50 mM of sodium chloride). For each acquisition, five traces were collected, averaged, and satisfactorily fitted to a single exponential equation.

SPOP MATH WT [2] = molecular target: T1, SPOP MATH WT; assay: Stopped-flow displacement; assay type: binding; conditions: preincubated complex (both 8 µM) mixed with 50 μM nondansylated peptide, 298 K, average of five single traces
Experimental: as §1
Target sequence in this assay (O43791 1-182): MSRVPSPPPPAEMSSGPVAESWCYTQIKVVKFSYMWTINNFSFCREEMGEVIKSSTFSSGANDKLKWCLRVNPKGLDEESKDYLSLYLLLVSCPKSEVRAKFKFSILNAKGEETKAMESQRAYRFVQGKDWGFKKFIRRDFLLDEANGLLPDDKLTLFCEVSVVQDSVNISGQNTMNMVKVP
Microscopic dissociation rate constants (koff) were directly measured by performing displacement experiments on an Applied Photophysics DX-17MV stopped-flow apparatus (Applied Photophysics). […] The samples were excited at 280 nm and fluorescence emission was collected by using a 330 ± 30 nm bandpass filter. […] The observed rate constants were calculated from the average of five single traces. […]

SPOP MATH WT [3] = molecular target: T1, SPOP MATH WT; assay: Equilibrium binding, FRET (Trp to dansyl), fluorescence titration; conditions: read-out: Equilibrium KD; dansylated peptide 0 to 40 µM; constant SPOP MATH WT (2 µM in methods, 1 µM in results); excitation 280 nm, emission 300-400 nm; 298 K; hyperbolic fit
Text: The MATH domain of SPOP exerts its functions by specifically recognizing different substrates and, therefore, acting as an adaptor module between SPOP and its physiological ligands. In an effort to provide a complete characterization of SPOP MATH binding mechanisms, we investigated the recognition of three peptides mimicking a specific region of the substrates Puc (region 96–105), MacroH2A (region 166–179), and PTEN (region 354–368). […] Moreover, the three-dimensional structure of SPOP MATH in complexes with each of the peptides has been previously reported (3HQH, 3HQL, and 4OV1 PDB entries, respectively). Similar to previous work on other protein–protein recognition modules, we employed peptides carrying a covalently attached N-terminal dansyl fluorophore. Binding was then followed by measuring the FRET (Forster resonance energy transfer) between the three tryptophan residues of the SPOP MATH domain (donor) and the dansyl group of the peptides (acceptor).
To address the equilibrium binding affinity of SPOP MATH and its substrates, a fixed concentration of the protein (1 µM) was challenged with increasing peptide concentrations. In all cases, the fluorescence-monitored transition returned a hyperbolic behavior as described in the Section 4, which allowed estimating a dissociation constant of 1.4 ± 0.4 µM, 1.6 ± 0.2 µM, and 5.5 ± 0.5 µM for Puc, MacroH2A, and PTEN, respectively (Figure 2). These values appear partly consistent with what was previously reported by Zhuang et al. by using surface plasmon resonance. […]
Equilibrium binding experiments were performed on a Fluoromax-4 single-photon-counting spectrofluorometer (Jobin-Yvon, Newark, NJ, USA). The SPOP MATH domain was excited at 280 nm and emission spectra were recorded between 300 and 400 nm, at increasing dansylated peptide concentrations. […]

[4] = molecular target: engineered MATH domain of SPOP (Speckle-type POZ protein), residues 1-182, cysteine residues substituted to serine (UniProt O43791); assay: stopped-flow fluorescence binding kinetics; pseudo-first-order; 2 µM MATH mixed with dansylated peptide, 2 to 10 µM Puc and MacroH2A, 2 to 40 µM PTEN; excitation 280 nm; 298 K; kobs against peptide concentration fitted to a line, kon from the slope
[5] = molecular target: engineered MATH domain of SPOP (Speckle-type POZ protein), residues 1-182, cysteine residues substituted to serine (UniProt O43791); assay: stopped-flow fluorescence displacement; preincubated complex of MATH domain and dansylated peptide (both 8 µM) mixed with an excess of nondansylated peptide (50 µM); 298 K; same buffer as the binding experiments; single exponential decay gives koff
[6] = molecular target: engineered MATH domain of SPOP (Speckle-type POZ protein), residues 1-182, cysteine residues substituted to serine (UniProt O43791); assay: stopped-flow fluorescence binding kinetics + other: stopped-flow fluorescence displacement; KD calculated by combining kon of the pseudo-first-order plots with koff of the displacement experiments; 298 K
[7] = molecular target: engineered MATH domain of SPOP (Speckle-type POZ protein), residues 1-182, cysteine residues substituted to serine (UniProt O43791); assay: other fluorescence titration; equilibrium; FRET from the tryptophans of SPOP MATH (excited at 280 nm, emission 300-400 nm) to the dansyl of the peptide; MATH at constant concentration (2 µM in the methods, 1 µM in the results), dansylated peptide 0 to 40 µM; 298 K; hyperbolic fit

Molecule | kon [4] [M⁻¹ s⁻¹] | koff [5] [s⁻¹] | Kd [6] [µM] | Kd [7] [µM] | kon (SPOP MATH WT [1]) [M⁻¹ s⁻¹] | koff (SPOP MATH WT [2]) [s⁻¹] | Kd (SPOP MATH WT [3]) [µM] | Kd (SPOP MATH WT [1]; read-out: Kinetics KD, WT, from kon (pseudo-first-order) and koff (displacement)) [µM]
C[C@H](NC(=O)[C@H](C)NC(=O)[C@H](CCCCN)NS(=O)(=O)c1cccc2c(N(C)C)cccc12)C(=O)N[C@@H](CO)C(=O)N[C@@H](C)C(=O)N[C@@H](CC(=O)O)C(=O)N[C@@H](CO)C(=O)N[C@H](C(=O)N[C@H](C(=O)N[C@@H](CCC(=O)O)C(=O)NCC(=O)N[C@H](C(=O)N1CCC[C@H]1C(=O)N[C@@H](C)C(=O)N[C@@H](CC(=O)O)C(=O)O)[C@@H](C)O)[C@@H](C)O)[C@@H](C)O [MacroH2A] (HELM PEPTIDE1{[CN(C)c1cccc2c(S(=O)(=O)[*:2])cccc12].K.A.A.S.A.D.S.T.T.E.G.T.P.A.D}$$$$V2.0) | – | – | – | – | 3e+06 ± 2e+06 | 21 ± 2 | 1.6 ± 0.2 | –
CC(C)[C@H](NC(=O)[C@H](CO)NC(=O)[C@@H](NC(=O)[C@H](CO)NC(=O)[C@H](CO)NC(=O)[C@H](CO)NC(=O)[C@H](C)NC(=O)[C@H](CCC(=O)O)NC(=O)[C@@H]1CCCN1C(=O)[C@H](CC(N)=O)NC(=O)[C@H](CO)NC(=O)[C@@H]1CCCN1S(=O)(=O)c1cccc2c(N(C)C)cccc12)[C@@H](C)O)C(=O)N[C@H](C(=O)N1CCC[C@H]1C(=O)N[C@@H](CC(=O)O)C(=O)O)[C@@H](C)O [PTEN] (HELM PEPTIDE1{[CN(C)c1cccc2c(S(=O)(=O)[*:2])cccc12].P.S.N.P.E.A.S.S.S.T.S.V.T.P.D}$$$$V2.0) | – | – | – | – | 5.5e+06 ± 500000 | 113 ± 1 | 4 ± 1 | 20.8 ± 0.4

Further lines, with some results ahead:

kon [4] [M⁻¹ s⁻¹] | koff [5] [s⁻¹] | Kd [6] [µM] | Kd [7] [µM] | Molecule | kon (SPOP MATH WT [1]) [M⁻¹ s⁻¹] | koff (SPOP MATH WT [2]) [s⁻¹] | Kd (SPOP MATH WT [3]) [µM] | Kd (SPOP MATH WT [1]; read-out: Kinetics KD, WT, from kon (pseudo-first-order) and koff (displacement)) [µM]
3e+06 | 21 | 7.8 | – | Dansyl-KAASADSTTEGTPAD [dansylated peptide mimicking MacroH2A (region 166-179)] | – | – | – | –
5.5e+06 | 113 | – | 5.5 | Dansyl-PSNPEASSSTSVTPD [dansylated peptide mimicking PTEN (region 354-368)] | – | – | – | –
